Data taken from patent US20230263822A1, “MODULATION OF FACTOR 11 EXPRESSION” (Ionis Pharmaceuticals, Inc., priority 2008, published 2023).
Strand notation (5' to 3'): a small letter for the sugar, then the base; units joined by * are phosphorothioate-linked, units joined directly phosphodiester-linked; [ ] holds rarer units or linkages, { } end groups; capitals alone tell only the bases. e = 2'-O-(2-methoxyethyl) (MOE); [5mC] = 5-methylcytosine; d = 2'-deoxy (DNA)

How the values were obtained:
Format in all cases: cell-based
[1] = test system: human Factor 11 mRNA; assay: Dose-dependent antisense inhibition of human Factor 11 in HepG2 cells, lipofectin 9.375-150 nM (Example 2); conditions: ~16 h
Method: Cells were plated at a density of 10,000 cells per well and transfected using lipofectin reagent with 9.375 nM, 18.75 nM, 37.5 nM, 75 nM, and 150 nM concentrations of antisense oligonucleotide, as specified in Table 3. After a treatment period of approximately 16 hours, RNA was isolated from the cells and Factor 11 mRNA levels were measured by quantitative real-time PCR. Human Factor 11 primer probe set RTS 2966 (forward sequence: […], incorporated herein as SEQ ID NO: 3; reverse sequence: […], incorporated herein as SEQ ID NO: 4; probe sequence: TTGTCTACTGAAGCACACCCAAACAGGGAX, incorporated herein as SEQ ID NO: 5) was used to measure mRNA levels. Factor 11 mRNA levels were adjusted according to total RNA content, as measured by RIBOGREEN. Results are presented as percent inhibition of Factor 11, relative to untreated control cells.

[2] = test system: human Factor 11 mRNA; assay: Antisense inhibition of human Factor 11 in HepG2 cells by microwalk gapmers, lipofectin, 75 nM (Example 3)
How it was run: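 HepG2 cells (10,000/well) were transfected via lipofectin with 75 nM 20-mer MOE gapmers (phosphorothioate, 5-methyl-C) for about 24 h. Factor 11 mRNA was measured by qRT-PCR, normalized to RIBOGREEN total RNA, and given as percent inhibition versus untreated cells.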

[3] = test system: human Factor 11 mRNA; assay: Dose-dependent inhibition of human Factor 11 in HepG2 cells, lipofectin 9.375-75 nM (Example 4)
How it was run: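 HepG2 cells transfected via lipofectin with antisense oligonucleotide at 9.375, 18.75, 37.5 or 75 nM for about 16 h. Factor 11 mRNA quantified by real-time RT-PCR (primer probe set RTS 2966) and normalized to total RNA (RIBOGREEN). Results expressed as percent inhibition versus untreated cells.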

[4] = test system: human Factor 11 mRNA; assay: Dose-dependent inhibition of human Factor 11 in HepG2 cells, electroporation 0.7-20 uM (Example 4)
How it was run: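 HepG2 cells electroporated with antisense gapmers at 0.7, 2.2, 6.7 and 20 μM, treated ~16 h. Factor 11 mRNA quantified by qRT-PCR (primer probe set RTS 2966), normalised to RIBOGREEN total RNA; expressed as percent inhibition versus untreated control cells.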

[5] = test system: human Factor 11 mRNA; assay: Antisense inhibition of human Factor 11 in HepG2 cells, lipofectin, 75 nM (Example 1); conditions: 75 nM antisense oligonucleotide, ~24 h, relative to untreated control cells, gapmers targeted to SEQ ID NO: 1
How it was run: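 HepG2 cells transfected via lipofectin with 75 nM antisense oligonucleotide (5-10-5 MOE gapmers, 20-mers, phosphorothioate, 5-methylcytidines), treated ~24 h. Factor 11 mRNA quantified by real-time PCR, normalised to RIBOGREEN total RNA; percent inhibition versus untreated cells.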

[6] = test system: human Factor 11 mRNA; assay: Antisense inhibition of human Factor 11 in HepG2 cells, electroporation, 8,000 nM (Example 30); conditions: electroporation, 8,000 nM antisense oligonucleotide
Method: These microwalk gapmers were tested in vitro. Cultured HepG2 cells at a density of 20,000 cells per well were transfected using electroporation with 8,000 nM antisense oligonucleotide. After a treatment period of approximately 24 hours, RNA was isolated from the cells and Factor 11 mRNA levels were measured by quantitative real-time PCR. Factor 11 mRNA levels were adjusted according to total RNA content, as measured by RIBOGREEN. Results are presented as percent inhibition of Factor 11, relative to untreated control cells.
The chimeric antisense oligonucleotides in Table 44 were designed as 5-10-5 MOE, 5-8-5 and 6-8-6 MOE gapmers. The first two listed gapmers in Table 44 are the original gapmers (ISIS 416850 and ISIS 416858) from which ISIS 445493-445543 were designed via microwalk, and are designated by an asterisk. The 5-10-5 gapmers are 20 nucleotides in length, wherein the central gap segment is comprised of ten 2′-deoxynucleotides and is flanked on both sides (in the 5′ and 3′ directions) by wings comprising five nucleotides each. The 5-8-5 gapmers are 18 nucleotides in length, wherein the central gap segment is comprised of eight 2′-deoxynucleotides and is flanked on both sides (in the 5′ and 3′ directions) by wings comprising five nucleotides each. The 6-8-6 gapmers are 20 nucleotides in length, wherein the central gap segment is comprised of eight 2′-deoxynucleotides and is flanked on both sides (in the 5′ and 3′ directions) by wings comprising six nucleotides each. For each of the motifs (5-10-5, 5-8-5 and 6-8-6), each nucleotide in the 5′ wing segment and each nucleotide in the 3′ wing segment has a 2′-MOE modification. The internucleoside linkages throughout each gapmer are phosphorothioate (P=S) linkages. All cytidine residues throughout each gapmer are 5-methylcytidines. “Human Target start site” indicates the 5′-most nucleotide to which the gapmer is targeted in the human sequence. “Human Target stop site” indicates the 3′-most nucleotide to which the gapmer is targeted in the human sequence. Each gapmer listed in Table 44 is targeted to SEQ ID NO: 1 (GENBANK Accession No. NM_000128.3). Each gapmer is Table 44 is also fully cross-reactive with the rhesus monkey Factor 11 gene sequence, designated herein as SEQ ID NO: 274 (exons 1-15 GENBANK Accession No. NW_001118167.1). ‘Rhesus monkey start site’ indicates the 5′-most nucleotide to which the gapmer is targeted in the rhesus monkey sequence. ‘Rhesus monkey stop site’ indicates the 3′-most nucleotide to which the gapmer is targeted to the rhesus monkey sequence.

[7] = test system: human Factor 11 mRNA; assay: Dose-dependent inhibition of human Factor 11 in HepG2 cells, electroporation 123.46-10,000 nM (Example 31); conditions: for Percent inhibition of Factor 11 mRNA at 123.47 nM / Percent inhibition of Factor 11 mRNA at 370.37 nM / IC50: electroporation; for Percent inhibition of Factor 11 mRNA at 123.47 nM / Percent inhibition of Factor 11 mRNA at 370.37 nM / Percent inhibition of Factor 11 mRNA at 1,111.11 nM / Percent inhibition of Factor 11 mRNA at 3,333.33 nM / Percent inhibition of Factor 11 mRNA at 10,000.0 nM: approx. 16 hours, relative to untreated control cells; for Percent inhibition of Factor 11 mRNA at 1,111.11 nM: electroporation, 1,111.11 nM; for Percent inhibition of Factor 11 mRNA at 3,333.33 nM: electroporation, 3,333.33 nM; for Percent inhibition of Factor 11 mRNA at 10,000.0 nM: electroporation, 10,000.0 nM; for IC50: Factor 11 mRNA expression
Method: Cells were plated at a density of 20,000 cells per well and transfected using electroporation with 123.46 nM, 370.37 nM, 1,111.11 nM, 3,333.33 nM and 10,000 nM concentrations of antisense oligonucleotide, as specified in Table 45. After a treatment period of approximately 16 hours, RNA was isolated from the cells and Factor 11 mRNA levels were measured by quantitative real-time PCR. Human Factor 11 primer probe set RTS 2966 was used to measure mRNA levels. Factor 11 mRNA levels were adjusted according to total RNA content, as measured by RIBOGREEN. Results are presented as percent inhibition of Factor 11, relative to untreated control cells.

[8] = HepG2, lipofectin, ~24 h, gapmers targeted to nucleobases 656 to 704 of SEQ ID NO: 1
[9] = HepG2 cells, lipofectin, gapmers targeted to nucleobases 1275 to 1318 of SEQ ID NO: 1

Substance: 412203 (antisense eA*eA*eT*eG*eT*d[5mC]*dT*dT*dT*dG*dT*dT*dG*d[5mC]*dA*eA*eG*e[5mC]*eG*e[5mC]) [compound 412203]
- percent inhibition of Factor 11 at 9.375 nM [1]: 29%
- percent inhibition of Factor 11 at 18.75 nM [1]: 15%
- percent inhibition of Factor 11 at 37.5 nM [1]: 61%
- percent inhibition of Factor 11 at 75 nM [1]: 77%
- percent inhibition of Factor 11 at 150 nM [1]: 82%
- IC50 [1]: 0.033 µM
- % inhibition [2, 8]: 97%
- IC50 [3]: 0.024 µM
- percent inhibition of Factor 11 at 9.375 nM ([3]; 9.375 nM, relative to untreated control cells): 33%
- percent inhibition of Factor 11 at 18.75 nM ([3]; 18.75 nM, relative to untreated control cells): 40%
- percent inhibition of Factor 11 at 37.5 nM ([3]; 37.5 nM, relative to untreated control cells): 62%
- percent inhibition of Factor 11 at 75 nM ([3]; 75 nM, relative to untreated control cells): 74%
- IC50 [4]: 2.7 µM
- percent inhibition of Factor 11 at 0.7 μM ([4]; 0.7 μM, relative to untreated control cells): 11%
- percent inhibition of Factor 11 at 2.2 μM ([4]; 2.2 μM, relative to untreated control cells): 60%
- percent inhibition of Factor 11 at 6.7 μM ([4]; 6.7 μM, relative to untreated control cells): 70%
- percent inhibition of Factor 11 at 20 μM ([4]; 20 μM, relative to untreated control cells): 91%
- % inhibition [5]: 91%

Substance: 412212 (antisense e[5mC]*e[5mC]*eG*eG*eG*dA*dT*dG*dA*dT*dG*dA*dG*dT*dG*e[5mC]*eA*eG*eA*eT) [compound 412212]
- percent inhibition of Factor 11 at 9.375 nM [1]: 28%
- percent inhibition of Factor 11 at 18.75 nM [1]: 45%
- percent inhibition of Factor 11 at 37.5 nM [1]: 59%
- percent inhibition of Factor 11 at 75 nM [1]: 73%
- percent inhibition of Factor 11 at 150 nM [1]: 88%
- IC50 [1]: 0.025 µM
- % inhibition ([2]; HepG2 cells, lipofectin, gapmers targeted to nucleobases 1018 to 1042 of SEQ ID NO: 1): 89%
- % inhibition [5]: 88%

Substance: 413468 (antisense eG*eT*e[5mC]*eT*eA*dG*dG*dT*d[5mC]*d[5mC]*dA*d[5mC]*dA*dT*dA*eA*eA*eT*eG*eT) [compound 413468]
- percent inhibition of Factor 11 at 9.375 nM [1]: 14%
- percent inhibition of Factor 11 at 18.75 nM [1]: 34%
- percent inhibition of Factor 11 at 37.5 nM [1]: 56%
- percent inhibition of Factor 11 at 75 nM [1]: 78%
- percent inhibition of Factor 11 at 150 nM [1]: 75%
- IC50 [1]: 0.035 µM
- % inhibition [2, 8]: 83%
- % inhibition [5]: 84%

Substance: 413469 (antisense eT*eG*e[5mC]*e[5mC]*e[5mC]*dT*dT*d[5mC]*dA*dT*dG*dT*d[5mC]*dT*dA*eG*eG*eT*e[5mC]*e[5mC]) [compound 413469]
- percent inhibition of Factor 11 at 9.375 nM [1]: 24%
- percent inhibition of Factor 11 at 18.75 nM [1]: 33%
- percent inhibition of Factor 11 at 37.5 nM [1]: 53%
- percent inhibition of Factor 11 at 75 nM [1]: 70%
- percent inhibition of Factor 11 at 150 nM [1]: 84%
- IC50 [1]: 0.033 µM
- % inhibition [2, 8]: 86%
- % inhibition [5]: 84%

Substance: 416849 (antisense eG*e[5mC]*eA*e[5mC]*eA*dG*dT*dT*dT*d[5mC]*dT*dG*dG*d[5mC]*dA*eG*eG*e[5mC]*e[5mC]*eT) [compound 416849]
- % inhibition [2, 9]: 88%
- Percent inhibition of human Factor 11 mRNA levels [6]: 88%
- Percent inhibition of Factor 11 mRNA at 123.47 nM [7]: 5%
- Percent inhibition of Factor 11 mRNA at 370.37 nM [7]: 5%
- Percent inhibition of Factor 11 mRNA at 1,111.11 nM [7]: 26%
- Percent inhibition of Factor 11 mRNA at 3,333.33 nM [7]: 57%
- Percent inhibition of Factor 11 mRNA at 10,000.0 nM [7]: 68%
- IC50 [7]: 2.7 µM

Substance: 416857 (antisense e[5mC]*eG*eG*e[5mC]*eA*dT*dT*dG*dG*dT*dG*d[5mC]*dA*d[5mC]*dA*eG*eT*eT*eT*e[5mC]) [compound 416857]
- % inhibition [2, 9]: 92%
- Percent inhibition of human Factor 11 mRNA levels [6]: 91%
- Percent inhibition of Factor 11 mRNA at 123.47 nM [7]: 2%
- Percent inhibition of Factor 11 mRNA at 370.37 nM [7]: 20%
- Percent inhibition of Factor 11 mRNA at 1,111.11 nM [7]: 35%
- Percent inhibition of Factor 11 mRNA at 3,333.33 nM [7]: 62%
- Percent inhibition of Factor 11 mRNA at 10,000.0 nM [7]: 72%
- IC50 [7]: 2.3 µM

Substance: 445503 (antisense eG*e[5mC]*eA*eT*eT*eG*dG*dT*dG*d[5mC]*dA*d[5mC]*dA*dG*eT*eT*eT*e[5mC]*eT*eG) [compound 445503]
- Percent inhibition of human Factor 11 mRNA levels [6]: 89%
- Percent inhibition of Factor 11 mRNA at 123.47 nM [7]: 0%
- Percent inhibition of Factor 11 mRNA at 370.37 nM [7]: 0%
- Percent inhibition of Factor 11 mRNA at 1,111.11 nM [7]: 22%
- Percent inhibition of Factor 11 mRNA at 3,333.33 nM [7]: 36%
- Percent inhibition of Factor 11 mRNA at 10,000.0 nM [7]: 60%
- IC50 [7]: 5.9 µM

Substance: 445532 (antisense e[5mC]*eG*eG*e[5mC]*eA*dT*dT*dG*dG*dT*dG*d[5mC]*dA*e[5mC]*eA*eG*eT*eT) [compound 445532]
- Percent inhibition of human Factor 11 mRNA levels [6]: 89%
- Percent inhibition of Factor 11 mRNA at 123.47 nM [7]: 5%
- Percent inhibition of Factor 11 mRNA at 370.37 nM [7]: 12%
- Percent inhibition of Factor 11 mRNA at 1,111.11 nM [7]: 39%
- Percent inhibition of Factor 11 mRNA at 3,333.33 nM [7]: 60%
- Percent inhibition of Factor 11 mRNA at 10,000.0 nM [7]: 70%
- IC50 [7]: 2 µM
